This note sets out measurements from US20250154127A1, “BICYCLIC HETEROARYL COMPOUNDS AND USES THEREOF” (ETERN BIOPHARMA (SHANGHAI) CO., LTD., priority 2022, published 2025).

Experiment [1] has as its target TEAD1(210-426) binding to YAP(50-100) (Homo sapiens, UniProt P28347). Briefly: TR-FRET Assay for TEAD1(210-426) Binding to YAP(50-100). The settings on record: His-TEAD 10 nM, YAP-Biotin peptide 50 nM. Put shortly:
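10 nM His-TEAD1 preincubated 30 min at room temperature with compound (3-fold dilutions, 12 points, 1% DMSO), then 50 nM biotin-YAP peptide added.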

Experiment [2] concerns MSTO-211H cells. Briefly: Proliferation Assay (CellTiter-Glo Luminescent Cell Viability Assay). The class given is cell-based. The settings on record: Homo sapiens, 96 hours treatment. The essentials:
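MSTO-211H cells, 1,500/well in RPMI 1640 with 10% FBS, plated overnight, then treated 96 h with 9-point 3-fold compound series in duplicate (DMSO below 0.5%). Viability by CellTiter-Glo luminescence; inhibition relative to DMSO wells, IC50 by four-parameter fit.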

Sequence of TEAD1(210-426) binding to YAP(50-100) (P28347 209-426): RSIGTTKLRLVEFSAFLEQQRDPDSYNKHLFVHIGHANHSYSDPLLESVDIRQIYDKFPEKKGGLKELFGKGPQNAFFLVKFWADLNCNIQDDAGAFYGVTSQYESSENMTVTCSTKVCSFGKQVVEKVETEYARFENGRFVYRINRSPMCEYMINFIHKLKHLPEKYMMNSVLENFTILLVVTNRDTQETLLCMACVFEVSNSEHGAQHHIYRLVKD

What is called IC50 is the point on the concentration scale where inhibition reaches its midpoint. Consider `C[C@@H](c1cccnc1)n1ccc(-c2nn(-c3ccc(C(F)(F)F)cc3)c3ccccc23)cc1=O` [Compound 13, (S)-1-(1-(pyridin-3-yl)ethyl)-4-(1-(4-(trifluoromethyl)phenyl)-1H-indazol-3-yl)pyridin-2(1H)-one], for which the IC50 is at most 0.1 µM in experiment [1] and at most 1 µM in experiment [2].
For the compound `C[C@@H](c1ccccn1)n1ccc(-c2nn(-c3ccc(C(F)(F)F)cc3)c3ccc(F)cc23)cc1=O` [Compound 33, (S)-4-(5-fluoro-1-(4-(trifluoromethyl)phenyl)-1H-indazol-3-yl)-1-(1-(pyridin-2-yl)ethyl)pyridin-2(1H)-one], the IC50 is at most 0.1 µM in experiment [1] and at most 1 µM in experiment [2].
Taken in the same sequence, the figures for `O=c1cc(-n2nc(-c3ccc(C(F)(F)F)cc3)c3c(F)cccc32)ccn1Cc1ccnc(OCCO)n1` [Compound 136, 4-(4-fluoro-3-(4-(trifluoromethyl)phenyl)-1H-indazol-1-yl)-1-((2-(2-hydroxyethoxy)pyrimidin-4-yl)methyl)pyridin-2(1H)-one] were at most 0.1 µM and at most 1 µM.
Regarding `O=c1cc(-c2nn(-c3ccc(C(F)(F)F)cc3)c3ccccc23)ccn1Cc1nccc(N2CC[C@H](O)C2)n1` [Compound 55, (S)-1-((4-(3-hydroxypyrrolidin-1-yl)pyrimidin-2-yl)methyl)-4-(1-(4-(trifluoromethyl)phenyl)-1H-indazol-3-yl)pyridin-2(1H)-one], the half-inhibitory concentration (IC50) in experiment [1] is at most 0.1 µM; in experiment [2], at most 1 µM.
`O=c1cc(-c2nn(-c3ccc(C(F)(F)F)cc3)c3ccccc23)ccn1Cc1ncccn1` [Compound 15, 1-(pyrimidin-2-ylmethyl)-4-(1-(4-(trifluoromethyl)phenyl)-1H-indazol-3-yl)pyridin-2(1H)-one]: the IC50 in experiment [1] was at most 0.1 µM; in experiment [2], at most 1 µM.
Taken in the same sequence, the figures for `COCCOc1nccc(Cn2ccc(-c3nn(-c4ccc(C(F)(F)F)cc4)c4cccc(F)c34)cc2=O)n1` [Compound 154, 4-(4-fluoro-1-(4-(trifluoromethyl)phenyl)-1H-indazol-3-yl)-1-((2-(2-methoxyethoxy)pyrimidin-4-yl)methyl)pyridin-2(1H)-one] were at most 0.1 µM and at most 1 µM.
Taken in the same sequence, the figures for `CNc1nccc(Cn2ccc(-n3nc(-c4ccc(C(F)(F)F)cc4)c4nccnc43)cc2=O)n1` [Compound 51, 1-((2-(methylamino)pyrimidin-4-yl)methyl)-4-(3-(4-(trifluoromethyl)phenyl)-1H-pyrazolo[3,4-b]pyrazin-1-yl)pyridin-2(1H)-one] were at most 0.1 µM and at most 1 µM.
Taken in the same sequence, the figures for `CNc1nccc(Cn2ccc(-c3nn(-c4ccc(C(F)(F)F)cc4)c4ccccc34)cc2=O)n1` [Compound 92, 1-((2-(methylamino)pyrimidin-4-yl)methyl)-4-(1-(4-(trifluoromethyl)phenyl)-1H-indazol-3-yl)pyridin-2(1H)-one] were at most 0.1 µM and at most 1 µM.
With `Cn1ccc(Cn2ccc(-c3cn(-c4ccc(C(F)(F)F)cc4)c4ncccc34)cc2=O)n1` [Compound 64, 1-((1-methyl-1H-pyrazol-3-yl)methyl)-4-(1-(4-(trifluoromethyl)phenyl)-1H-pyrrolo[2,3-b]pyridin-3-yl)pyridin-2(1H)-one], the 50% inhibitory concentration (IC50) was at most 0.1 µM in experiment [1] and at most 1 µM in experiment [2].
Taken in the same sequence, the figures for `Nc1cc(Cn2ccc(-n3nc(-c4ccc(C(F)(F)F)cc4)c4ncccc43)cc2=O)ccn1` [Compound 121, 1-((2-aminopyridin-4-yl)methyl)-4-(3-(4-(trifluoromethyl)phenyl)-1H-pyrazolo[4,3-b]pyridin-1-yl)pyridin-2(1H)-one] were at most 0.1 µM and at most 1 µM.
Taken in the same sequence, the figures for `O=c1cc(-c2nn(-c3ccc(C(F)(F)F)cc3)c3cccc(F)c23)ccn1Cc1ccnc(OCCO)n1` [Compound 153, 4-(4-fluoro-1-(4-(trifluoromethyl)phenyl)-1H-indazol-3-yl)-1-((2-(2-hydroxyethoxy)pyrimidin-4-yl)methyl)pyridin-2(1H)-one] were at most 0.1 µM and at most 1 µM.
Taken in the same sequence, the figures for `C[C@@H](c1ccccn1)n1ccc(-c2nn(-c3ccc(C(F)(F)F)cc3)c3ccccc23)cc1=O` [Compound 11, (S)-1-(1-(pyridin-2-yl)ethyl)-4-(1-(4-(trifluoromethyl)phenyl)-1H-indazol-3-yl)pyridin-2(1H)-one] were at most 0.1 µM and at most 1 µM.
For the compound `C[C@@H](c1ccccn1)n1ccc(-c2nn(-c3ccc(OC(F)(F)F)cc3)c3cccnc23)cc1=O` [Compound 1, (S)-1-(1-(pyridin-2-yl)ethyl)-4-(1-(4-(trifluoromethoxy)phenyl)-1H-pyrazolo[4,3-b]pyridin-3-yl)pyridin-2(1H)-one], the results for the IC50 in experiment [1] and in experiment [2] were at most 0.1 µM and at most 1 µM, respectively.
Taken in the same sequence, the figures for `O=c1cc(-c2nn(-c3ccc(C(F)(F)F)cc3)c3ncccc23)ccn1Cc1ccn(CCO)n1` [Compound 74, 1-((1-(2-hydroxyethyl)-1H-pyrazol-3-yl)methyl)-4-(1-(4-(trifluoromethyl)phenyl)-1H-pyrazolo[3,4-b]pyridin-3-yl)pyridin-2(1H)-one] were at most 0.1 µM and at most 1 µM.
Taken in the same sequence, the figures for `CNc1ccnc(Cn2ccc(-c3nn(-c4ccc(C(F)(F)F)cc4)c4nccnc34)cc2=O)n1` [Compound 104, 1-((4-(methylamino)pyrimidin-2-yl)methyl)-4-(1-(4-(trifluoromethyl)phenyl)-1H-pyrazolo[3,4-b]pyrazin-3-yl)pyridin-2(1H)-one] were 0.1 to 1 µM and at most 1 µM.
Taken in the same sequence, the figures for `COc1ccc2c(c1)c(-c1ccn([C@@H](C)c3ccccn3)c(=O)c1)nn2-c1ccc(C(F)(F)F)cc1` [Compound 34, (S)-4-(5-methoxy-1-(4-(trifluoromethyl)phenyl)-1H-indazol-3-yl)-1-(1-(pyridin-2-yl)ethyl)pyridin-2(1H)-one] were at most 0.1 µM and at most 1 µM.
On to `O=c1cc(-n2nc(-c3ccc(C(F)(F)F)cc3)c3ncccc32)ccn1Cc1cccnc1` [Compound 120, 1-(pyridin-3-ylmethyl)-4-(3-(4-(trifluoromethyl)phenyl)-1H-pyrazolo[4,3-b]pyridin-1-yl)pyridin-2(1H)-one], for which the IC50 in experiment [1] was at most 0.1 µM; in experiment [2], at most 1 µM.
In the case of `Nc1nccc(Cn2ccc(-c3nn(-c4ccc(C(F)(F)F)cc4)c4ncccc34)cc2=O)n1` [Compound 109, 1-((2-aminopyrimidin-4-yl)methyl)-4-(1-(4-(trifluoromethyl)phenyl)-1H-pyrazolo[3,4-b]pyridin-3-yl)pyridin-2(1H)-one], the IC50 was at most 0.1 µM in experiment [1] and at most 1 µM in experiment [2].
Taken in the same sequence, the figures for `CNc1nccc(Cn2ccc(-n3nc(-c4ccc(C(F)(F)F)cc4)c4c(F)cccc43)cc2=O)n1` [Compound 135, 4-(4-fluoro-3-(4-(trifluoromethyl)phenyl)-1H-indazol-1-yl)-1-((2-(methylamino)pyrimidin-4-yl)methyl)pyridin-2(1H)-one] were at most 0.1 µM and at most 1 µM.
Taken in the same sequence, the figures for `C[C@@H](c1ccccn1)n1ccc(-c2nn(-c3ccc(C(F)(F)F)cc3)c3cc(CO)ccc23)cc1=O` [Compound 28, (S)-4-(6-(hydroxymethyl)-1-(4-(trifluoromethyl)phenyl)-1H-indazol-3-yl)-1-(1-(pyridin-2-yl)ethyl)pyridin-2(1H)-one] were at most 0.1 µM and at most 1 µM.
Taken in the same sequence, the figures for `CN(CCO)c1ccnc(Cn2ccc(-c3nn(-c4ccc(C(F)(F)F)cc4)c4nccnc34)cc2=O)n1` [Compound 107, 1-((4-((2-hydroxyethyl)(methyl)amino)pyrimidin-2-yl)methyl)-4-(1-(4-(trifluoromethyl)phenyl)-1H-pyrazolo[3,4-b]pyrazin-3-yl)pyridin-2(1H)-one] were at most 0.1 µM and at most 1 µM.
`O=c1cc(-c2nn(-c3ccc(C(F)(F)F)cc3)c3c(F)cccc23)ccn1Cc1ccnc(Cl)n1` [Compound 157, 1-((2-chloropyrimidin-4-yl)methyl)-4-(7-fluoro-1-(4-(trifluoromethyl)phenyl)-1H-indazol-3-yl)pyridin-2(1H)-one]: the results for the IC50 in experiment [1] and in experiment [2] were at most 0.1 µM and at most 1 µM, respectively.
Consider `O=c1cc(-c2nn(-c3ccc(C(F)(F)F)cc3)c3nccnc23)ccn1Cc1nccc(O)n1` [Compound 100, 1-((4-hydroxypyrimidin-2-yl)methyl)-4-(1-(4-(trifluoromethyl)phenyl)-1H-pyrazolo[3,4-b]pyrazin-3-yl)pyridin-2(1H)-one], for which the IC50 in experiment [1] is at most 0.1 µM; in experiment [2] it was at most 1 µM.
Consider `O=c1cc(-c2nn(-c3ccc(C(F)(F)F)cc3)c3ccccc23)ccn1Cc1nccc(N2CC(O)C2)n1` [Compound 85, 1-((4-(3-hydroxyazetidin-1-yl)pyrimidin-2-yl)methyl)-4-(1-(4-(trifluoromethyl)phenyl)-1H-indazol-3-yl)pyridin-2(1H)-one], for which the IC50 in experiment [1] is at most 0.1 µM; in experiment [2] it was at most 1 µM.
Taken in the same sequence, the figures for `CNc1nccc(Cn2ccc(-c3nn(-c4ccc(C(F)(F)F)cc4)c4ccc(F)cc34)cc2=O)n1` [Compound 140, 4-(5-fluoro-1-(4-(trifluoromethyl)phenyl)-1H-indazol-3-yl)-1-((2-(methylamino)pyrimidin-4-yl)methyl)pyridin-2(1H)-one] were at most 0.1 µM and at most 1 µM.
Taken in the same sequence, the figures for `Nc1cccc(Cn2ccc(-c3nn(-c4ccc(C(F)(F)F)cc4)c4ccccc34)cc2=O)n1` [Compound 60, 1-((6-aminopyridin-2-yl)methyl)-4-(1-(4-(trifluoromethyl)phenyl)-1H-indazol-3-yl)pyridin-2(1H)-one] were at most 0.1 µM and at most 1 µM.
